In US11566007B2, “Ras inhibitors” (Revolution Medicines, Inc., priority 2019, dated 2023) one finds EC50 and IC50 data, which are given here for three compounds.

Assay [1] has as its system NCI-H358 cells (K-Ras G12C). Description: Potency assay: pERK in NCI-H358 cells. Format: cell-based, human. The note with it: Homo sapiens, NCI-H358; H358 KRAS G12C; read-out: pERK EC50. A digest of the protocol:
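Inhibition of cellular pERK after a 4 h treatment, detected by AlphaLISA or In-Cell Western. IC50 from a four-parameter concentration-response fit.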

A further assay deals with K-Ras G12C (Homo sapiens (Human), UniProt P01116+P62937, G12C). Description: Ras-Raf (BRAF RBD) disruption / FRET / MOA assay, KRAS G12C. It counts as biochemical. The note with it: KRAS G12C; Ras-Raf disruption/FRET/MOA assay; read-out: IC50* KRAS G12C FRET data. A digest of the protocol: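 A 10-point, 3-fold dilution series topping at 30 μM final was incubated 3 h at 25° C with the Ras/cyclophilin A/BRAF RBD mixture.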
Chain of K-Ras G12C (P01116-2 other isoform, or with tags, fused parts or gaps G12C): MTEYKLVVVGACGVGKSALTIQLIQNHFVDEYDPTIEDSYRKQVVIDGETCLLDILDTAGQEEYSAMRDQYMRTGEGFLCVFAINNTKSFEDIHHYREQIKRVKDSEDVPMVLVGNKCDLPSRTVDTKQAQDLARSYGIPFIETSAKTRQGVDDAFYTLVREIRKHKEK
Chain of K-Ras G12C (P62937 whole entry): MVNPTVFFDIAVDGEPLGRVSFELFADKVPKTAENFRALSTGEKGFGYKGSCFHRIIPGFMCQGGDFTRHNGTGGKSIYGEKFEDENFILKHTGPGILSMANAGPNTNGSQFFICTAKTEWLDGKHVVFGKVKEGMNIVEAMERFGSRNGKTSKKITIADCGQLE

Turning to `CO[C@@H](C)c1ncccc1-c1c2c3cc(ccc3n1CC(F)(F)F)-c1cccc(c1)C[C@H](NC(=O)[C@H](C(C)C)N(C)C(=O)[C@H]1CCN(C(=O)C#CC(C)(C)N(C)C)C1)C(=O)N1CCC[C@H](N1)C(=O)OCC(C)(C)C2` (atropisomer, axis not shown) [Example A727], in assay [1], the EC50 is under 5000 nM. Also, at K-Ras G12C, the IC50 is under 10 nM.
Taken in the same sequence, the figures for `C=CC(=O)N1C[C@@H]2CN(C(=O)N(C)[C@H](C(=O)N[C@H]3Cc4nc(cs4)-c4ccc5c(c4)c(c(-c4cccnc4[C@H](C)OC)n5CC)CC(C)(C)COC(=O)[C@@H]4CCCN(N4)C3=O)C(C)C)[C@@H]2C1` (atropisomer, axis not shown) [Example A561] were under 5000 nM and 100 to 1000 nM.
As to `CO[C@@H](C)c1ncccc1-c1c2c3cc(ccc3n1CC(F)(F)F)-c1cccc(c1)C[C@H](NC(=O)[C@@H](COC1CN(C(=O)C#CC3(C)OCCO3)C1)C(C)C)C(=O)N1CCC[C@H](N1)C(=O)OCC(C)(C)C2` (atropisomer, axis not shown) [Example A703], the EC50 in assay [1] is under 5000 nM. For the same compound, the IC50 on K-Ras G12C lay in the range of 10 to 100 nM.

As a reminder, the EC50 is the concentration needed to bring the measured effect to its halfway point. As a reminder, the IC50 is the midpoint of a concentration-inhibition curve.
